Measurements published in doi:10.1101/2025.04.16.649181, “Design of peptide-based PAC1 antagonists combining molecular dynamics simulations and a biologically relevant cell-based assay” (bioRxiv, 2025).
No end group written: not given here.

Experiments:
[1] = biological target: T1, PAC1 (endogenous, mainly PAC1null, SH-SY5Y) (Homo sapiens, UniProt P41586); assay: CBS assay, antagonism of P27-induced cAMP in SY5Y_CBS cells; type: cell-based
T1 construct: Neuroblastoma SH-SY5Y cells endogenously xpressing hPAC1 and engineered to express CBS; endogenous in cells
T1 sequence (P41586 21-468): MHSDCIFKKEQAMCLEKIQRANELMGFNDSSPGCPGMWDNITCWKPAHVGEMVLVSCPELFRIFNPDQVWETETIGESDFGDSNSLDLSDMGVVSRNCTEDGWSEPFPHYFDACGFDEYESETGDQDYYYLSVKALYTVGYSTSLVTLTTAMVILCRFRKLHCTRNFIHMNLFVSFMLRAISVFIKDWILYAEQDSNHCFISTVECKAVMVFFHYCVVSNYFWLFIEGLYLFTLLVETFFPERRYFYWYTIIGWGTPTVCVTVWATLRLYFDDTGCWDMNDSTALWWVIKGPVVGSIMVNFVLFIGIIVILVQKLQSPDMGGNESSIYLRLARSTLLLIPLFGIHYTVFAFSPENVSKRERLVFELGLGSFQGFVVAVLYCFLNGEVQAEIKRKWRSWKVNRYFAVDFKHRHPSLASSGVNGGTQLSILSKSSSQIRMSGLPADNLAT
From the text: (§1) A single clone of the SH-SY5Y cell line stably expressing a cAMP biosensor (SY5Y_CBS) was generated as previously described for HEK293_CBS and NS-1_CBS cells, using the retroviral vector pLHCX containing the cAMP biosensor and a hygromycin resistance gene. A HEK293_CBS_hPAC1 cell clone was generated by transducing HEK293_CBS cells with the lentiviral vector pLX304 (GeneCopoeia, Rockville, MD) encoding the human PAC1hop (PAC1; GenBank accession no. BC143679) and a blasticidin resistance gene . Following transduction, cells were selected with the appropriate antibiotics (hygromycin or blasticidin) for 2 weeks. Single-cell clones were subsequently isolated by limiting dilution and assessed for PACAP-induced cAMP production using concentration-response assays.
(§2) The cyclic AMP biosensor (CBS) assay was performed using Gibco CO2-independent medium (ThermoFisher, catalog #18045-088). HEK293_CBS_hPAC1 or SY5Y_CBS cells were seeded in 96-well black/clear-bottom plates (MidSci, Fenton, MO) at a density of 6,000 cells per well and incubated overnight. The following day, the medium in each well was aspirated and replaced with fresh medium containing 1.5 mg/mL D-luciferin potassium salt substrate (Gold Biotechnology, St. Louis, MO) and 500 μM isobutyl-1-methylxanthine (IBMX), followed by incubation at 37 °C for 1 hour. Cells were then pre-treated with antagonists for 10 minutes before the addition of agonists (PACAP or forskolin). Plates were incubated at 37 °C for 1 hour, then brought to room temperature and equilibrated for 30 minutes. Luminescence was measured using a GloMax plate reader (Promega, Madison, WI).
For the high-throughput CBS screening assays, cells were plated at 2,000 (HEK293_CBS_hPAC1) or 3,000 (SY5Y_CBS) cells per well in […] of Gibco CO2-independent medium, in white 1,536-well tissue culture treated plates. After overnight incubation at 37 °C and 5% CO2, […] of luciferin/IBMX solution was added to the wells (final concentrations of 500 μM each) and plates were incubated at 37 °C for 1 hour. SMOLs (22.5 nL) were transferred to the assay plate, using a pintool device (HEK293 screen) or an ECHO acoustic liquid handler (Beckman Coulter, Brea, CA, SY5Y screen), to final concentrations (4 concentrations per compound) between 0.5 and 30 μM and cells were incubated at 37 °C for 1 hour (HEK293 screen) or 10 minutes (SY5Y screen). […] For forskolin counterscreening in SY5Y cells, forskolin instead of peptide was dispensed to the plate at a final concentration of 5 μM.
(§3) GraphPad Prism ver. 9.0 or 10.0 (GraphPad Software Inc, Boston, MA) was used for data analysis. Concentration response curves were created using a four parameter logistic regression model. EC80 and IC50 parameters were obtained using non-linear regression curve fitting tools. EC80 was calculated as the effective concentration of the agonist required to produce 80% of the maximal response. IC50 was calculated as the concentration of the antagonist that produced 50% of the response induced by an agonist (either PACAP or forskolin) in the absence of the antagonist. Seven or eight different concentrations and three technical replicates per concentration were used for curve fitting. All data are presented as mean ± standard error of the mean (SEM).

[2] = biological target: T1, PAC1 (endogenous, mainly PAC1null, SH-SY5Y); assay: CBS assay, antagonism of P38-induced cAMP in SY5Y_CBS cells; type: cell-based
From the text: as §1, §2, §3

[3] = biological target: T1, PAC1 (endogenous, mainly PAC1null, SH-SY5Y); assay: Direct cAMP ELISA, antagonism of P38 in SY5Y_CBS cells; type: cell-based
Protocol: Direct cAMP determinations were made using the DetectX® Direct Cyclic AMP Enzyme Immunoassay Kit (Arbor Assays, Ann Arbor, MI). SY5Y_CBS cells (200,000 cells per well) or HEK293_CBS cells (10,000 cells per well) were seeded into 96-well plates one day prior to the assay. These cell densities were optimized to ensure agonist responses fell within the linear range of the cAMP standard curve (0.16-10 pmol/mL cAMP). On the day of the assay, the medium was removed and replaced with fresh medium containing 500 μM IBMX. After a 20-minute incubation at 37 °C, antagonists were added and incubated for 10 minutes at 37 °C, followed by the addition of agonists for 30 minutes at 37 °C. Following the final incubation, the medium was aspirated, and cells were lysed with 200 μL of lysis buffer (provided in the kit) for 10 minutes at room temperature. Samples were then snap-frozen and stored at −80 °C overnight and thawed the next day to ensure complete cell lysis. The assay was completed by sequentially adding the cAMP peroxidase conjugate, anti-cAMP sheep antibody, substrate, and stop solution, according to the manufacturer’s instructions. Optical density was measured at 450 nm using a microplate spectrophotometer (Molecular Devices, San Jose, CA). Standard curves and data analysis were performed using GraphPad Prism with a sigmoidal four-parameter nonlinear regression model. Experiments conducted on different days with independently plated and assayed cells were considered biological replicates. Each experiment included three technical replicates.
as §3

human PAC1hop (hPAC1) = assay: cAMP biosensor (CBS) assay, agonist responses in HEK293_CBS_hPAC1; type: cell-based; settings: HEK293_CBS_hPAC1, IBMX pretreated, luminescence
From the text: as §1, §2
GraphPad Prism ver. 9.0 or 10.0 (GraphPad Software Inc, Boston, MA) was used for data analysis. Concentration response curves were created using a four parameter logistic regression model. EC80 and IC50 parameters were obtained using non-linear regression curve fitting tools. EC80 was calculated as the effective concentration of the agonist required to produce 80% of the maximal response. […]

[4] = biological target: PAC1 endogenously expressed in SH-SY5Y cells (human (endogenous in SH-SY5Y)) (UniProt P41586)
[5] = 0.2 nM P38 (EC80), SY5Y_CBS, mean ± SEM, three independent experiments, Figure 11B, read-out: IC50 of P6-38 C-terminal mutants in CBS assay
[6] = 1 nM P38, average of two independent experiments, read-out: IC50 Average in ELISA assay
[7] = 1 nM P38, range of two independent experiments, read-out: IC50 Range in ELISA assay

Row | Compound | IC50 [2, 5] | IC50 [3, 6] | IC50 [3, 7] | also measured
1 | CSCC[C@H](NC(=O)[C@H](CCC(N)=O)NC(=O)[C@H](CCCCN)NC(=O)[C@H](CCCNC(=N)N)NC(=O)[C@H](Cc1ccc(O)cc1)NC(=O)[C@H](CCCNC(=N)N)NC(=O)[C@H](CO)NC(=O)[C@H](Cc1ccc(O)cc1)NC(=O)[C@H](CO)NC(=O)[C@H](CC(=O)O)NC(=O)[C@@H](NC(=O)[C@@H](N)Cc1ccccc1)[C@@H](C)O)C(=O)N[C@@H](C)C(=O)N[C@H](C(=O)N[C@@H](CCCCN)C(=O)N[C@@H](CCCCN)C(=O)N[C@@H](Cc1ccc(O)cc1)C(=O)N[C@@H](CC(C)C)C(=O)N[C@@H](C)C(=O)N[C@@H](C)C(=O)N[C@H](C(=O)N[C@@H](CC(C)C)C(=O)NCC(=O)N[C@@H](CCCCN)C(=O)N[C@@H](CCCNC(=N)N)C(=O)N[C@@H](Cc1ccc(O)cc1)C(=O)N[C@@H](CCCCN)C(=O)N[C@@H](CCC(N)=O)C(=O)N[C@@H](CCCNC(=N)N)C(=O)N[C@H](C(=O)N[C@@H](CCCCN)C(=O)N[C@@H](CC(N)=O)C(=O)N[C@@H](CCCCN)C(N)=O)C(C)C)C(C)C)C(C)C [P6-38, reference compound] | 117 ± 19 nM | 114 nM | 86 to 142 nM | IC50 ([1]; IC50 against P27 (estimated from Figure 5B), 0.2 nM P27 (EC80), SY5Y_CBS): ~20 nM; IC50 ([2]; IC50 against P38 (Figure 9C), 0.2 nM P38, CBS assay, mean ± SEM, three independent experiments): 52 ± 13 nM; IC50 ([2]; IC50 against P38 (estimated from Figure 5B), 0.2 nM P38 (EC80), SY5Y_CBS, CBS assay): ~100 nM
2 | FTDSYSRYRKQMAVKKYLAAVL-NH2 [P6-27] |  | 3310 nM | 370 to 6250 nM | IC50 ([1]; IC50 against P27 (Figure 8), 0.2 nM P27, SY5Y_CBS, 3 independent experiments): ~100 nM; IC50 ([1]; IC50 against P27, 0.2 nM P27 (EC80), mean ± SEM, n = 3, Figure 7C): 200 ± 55 nM; IC50 ([2]; 0.2 nM P38 (EC80), SY5Y_CBS, three independent experiments, Figure 11B, read-out: IC50 of P6-38 C-terminal mutants in CBS assay): > 1000 nM
3 | FTDSYSRYRKQMAVKKYLAAVLGK-NH2 [P6-29] | > 500 nM | 1250 nM | 350 to 2150 nM | 
4 | FTDSYSRYRKQMAVKKYLAAVLGKR-NH2 [P6-30] | 84 ± 26 nM | 175 nM | 52 to 297 nM | 
5 | P27: PACAP 1-27, endogenous PAC1 agonist (HSDGIFTDSYSRYRKQMAVKKYLAAVL; ends and bridges not checked) |  |  |  | agonist response (cAMP) (human PAC1hop (hPAC1)): highly responsive to P38 and P27 with similar potency and efficacy
6 | PACAP(6-27) (peptide) |  |  |  | IC50 of inhibition of P27-stimulated (0.2 nM) cAMP elevation (CBS assay) in SY5Y CBS cells; pair that is blocked: m2 + m18 [4]: 0.1 µM; percent to which P38-induced (0.2 nM) cAMP elevation is blocked (CBS assay) in SY5Y CBS cells, antagonist up to 10 μM; pair that is blocked: m1 + m18 [4]: 50%
